Measurements as given in BindingDB's records for doi:10.1124/jpet.301.2.527 (Mercer University, 2002).

Key:
[1] = biological target: Sodium-dependent dopamine transporter (Rattus norvegicus, UniProt P23977)
[2] = biological target: Sodium-dependent serotonin transporter (Rattus norvegicus, UniProt P31652)
Sequence of Sodium-dependent serotonin transporter (P31652 whole entry): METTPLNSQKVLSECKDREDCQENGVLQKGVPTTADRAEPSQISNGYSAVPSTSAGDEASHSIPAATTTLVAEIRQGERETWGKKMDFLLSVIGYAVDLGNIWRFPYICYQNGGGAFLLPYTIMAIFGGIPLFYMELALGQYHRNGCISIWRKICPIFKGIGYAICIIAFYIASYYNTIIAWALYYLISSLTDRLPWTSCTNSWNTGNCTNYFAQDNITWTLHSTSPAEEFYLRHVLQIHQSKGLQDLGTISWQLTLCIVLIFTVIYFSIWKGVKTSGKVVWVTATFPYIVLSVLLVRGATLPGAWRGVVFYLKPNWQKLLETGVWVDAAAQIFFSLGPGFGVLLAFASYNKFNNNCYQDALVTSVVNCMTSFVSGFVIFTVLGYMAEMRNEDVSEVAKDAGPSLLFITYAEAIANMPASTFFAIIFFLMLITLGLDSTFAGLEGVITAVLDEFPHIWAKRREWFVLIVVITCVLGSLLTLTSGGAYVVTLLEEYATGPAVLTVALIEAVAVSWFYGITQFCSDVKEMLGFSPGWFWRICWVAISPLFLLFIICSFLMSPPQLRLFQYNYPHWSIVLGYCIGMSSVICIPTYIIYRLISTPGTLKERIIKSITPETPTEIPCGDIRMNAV

Sequence of Sodium-dependent dopamine transporter (P23977 whole entry): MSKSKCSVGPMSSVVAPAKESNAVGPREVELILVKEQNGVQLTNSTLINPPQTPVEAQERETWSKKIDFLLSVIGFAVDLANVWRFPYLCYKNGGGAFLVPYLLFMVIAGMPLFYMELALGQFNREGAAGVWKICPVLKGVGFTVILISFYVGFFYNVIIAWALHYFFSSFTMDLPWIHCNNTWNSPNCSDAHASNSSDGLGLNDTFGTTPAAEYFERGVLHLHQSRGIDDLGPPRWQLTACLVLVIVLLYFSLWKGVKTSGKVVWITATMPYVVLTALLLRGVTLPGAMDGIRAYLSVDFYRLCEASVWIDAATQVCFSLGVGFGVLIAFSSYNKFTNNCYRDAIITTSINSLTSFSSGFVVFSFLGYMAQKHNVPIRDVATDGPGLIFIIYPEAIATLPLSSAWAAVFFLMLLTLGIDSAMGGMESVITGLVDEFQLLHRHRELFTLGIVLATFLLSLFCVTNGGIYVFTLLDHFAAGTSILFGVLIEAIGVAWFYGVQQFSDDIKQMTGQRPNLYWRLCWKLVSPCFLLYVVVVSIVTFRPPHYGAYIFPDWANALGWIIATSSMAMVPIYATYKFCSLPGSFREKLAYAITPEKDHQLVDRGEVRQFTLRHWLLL

COC(=O)[C@H](c1ccc(Cl)c(Cl)c1)[C@@H]1CCCCN1 [3,4CTMP]
Ki [1]: 5.3 nM

COC(=O)[C@H](c1cccc(Cl)c1)[C@@H]1CCCCN1C [3CTMPNMe]
Ki [2]: > 10000 nM
Ki [1]: 160 nM

COC(=O)[C@H](c1cccc(Cl)c1)[C@@H]1CCCCN1 [3CTMP]
Ki [2]: > 10000 nM
Ki [1]: 5.1 nM

COC(=O)[C@H](c1ccc(N)cc1)[C@@H]1CCCCN1 [4ATMP]
Ki [2]: > 10000 nM
Ki [1]: 34.5 nM

COC(=O)[C@H](c1ccc(F)cc1)[C@@H]1CCCCN1 [4FTMP]
Ki [2]: > 10000 nM
Ki [1]: 35 nM

COC(=O)[C@H](c1ccc(C)cc1)[C@@H]1CCCCN1C [4MeTMPNMe]
Ki [2]: 1110 nM
Ki [1]: 140 nM

COC(=O)[C@H](c1ccc(C)cc1)[C@@H]1CCCCN1 [4MeTMP]
Ki [2]: > 10000 nM
Ki [1]: 33 nM

COC(=O)[C@H](c1ccccc1)[C@@H]1CCCCN1C [TMPNMe]
Ki [2]: > 10000 nM
Ki [1]: 499 nM

COC(=O)[C@H](c1ccccc1)[C@@H]1CCCCN1 [TMP]
Ki [2]: > 10000 nM

CCCCN1CCCC[C@H]1[C@H](CO)c1ccccc1 [TROHNBn]
Ki [2]: 204 nM
Ki [1]: 23.7 nM

CCCCN1CCCC[C@H]1[C@H](COC)c1ccccc1 [TROMeNBn]
Ki [2]: 166 nM
Ki [1]: 17.8 nM
